Consider four molecules from paper PMC5481443, “High-throughput Screening of Small Molecule Inhibitors of the Streptococcus Quorum-sensing Signal Pathway” (Scientific Reports, 2017).

Data set [1] addresses MuPEP1 (S. mutans PEP) (Streptococcus mutans, UniProt Q8DW05). Kind of data set: MuPEP1 peptidase inhibition assay with fluorogenic substrate tCComC-AFC. Type of data set: biochemical. As to the method:
This region of ComC is necessary and sufficient for the interaction with PEP[17]. […] Thus, this synthetic peptide was used as a functionally relevant substrate. Assays were performed in black flat-bottom 384-well plates (Greinar, 784900) under ambient conditions. All compounds dissolved in DMSO were predispensed on the plate (100 nL/well) with the final concentration of 20 μM, and then aliquots of 5 μL of 0.5 μM MuPEP1 (final concentration) in 50 mM Tris-HCl, 150 mM ammonium sulfate, and 0.02% Triton X-100 were dispensed to each well by using a Multidrop Combi dispenser (Thermo Fisher Scientific, Vantaa, Finland). […] These reaction mixtures contained DMSO at a 3% final concentration. Each 384-well plate contained 16 negative control wells (lacking MuPEP1) and 16 positive control wells (100 nL of DMSO replacing 100 nL of compound in DMSO). After 3-h incubation, the fluorescence intensity of the released AFC was measured by using a microplate reader, PHERAstar (BMG Labtech, Offenburg, Germany), with excitation at 380 nm and emission at 490 nm.
Fifteen microliters of 3.3 mM of phosphoric acid was added to 8 μL of the reaction mixtures from the screening. […] The fluorescence was detected by using excitation at 360 nm and emission at 470 nm.
Dose-dependent inhibitory activities of compounds against MuPEP1 were examined in quadruplicate. […]

The subject of data set [2] is S. mutans biofilm formation. In words: Biofilm formation assay (crystal violet staining; tilted tube culture). The data set is classed as cell-based, S. mutans strain UA159. As to the method:
After 18 h of standing incubation at 37 °C in 5% CO2 under anaerobic condition in an AnaeroPack system (Mitsubishi Gas Chemical, Tokyo, Japan), the cultured medium was removed, and adherent bacteria were stained with 200 μL of 0.005% crystal violet for 30 min. […] The dye was extracted into 200 μL of 60% ethanol, and the biofilm mass was estimated by using a microplate reader (Bio-Rad, Model 680XR) (Bio-Rad, Hercules, CA) to measure the absorbance at 595 nm. […]

Data set [3] concerns S. mutans. In words: Bacterial growth / viable cell count. Type of data set: cell-based, S. mutans strain UA159. As to conditions: 25 μM compound, tube culture. As to the method:
[…] After 18 h of standing incubation at 37 °C in 5% CO2 under anaerobic condition in an AnaeroPack system (Mitsubishi Gas Chemical, Tokyo, Japan), the cultured medium was removed, and adherent bacteria were stained with 200 μL of 0.005% crystal violet for 30 min. The wells were washed twice with 300 μL of distilled water and then air dried. The dye was extracted into 200 μL of 60% ethanol, and the biofilm mass was estimated by using a microplate reader (Bio-Rad, Model 680XR) (Bio-Rad, Hercules, CA) to measure the absorbance at 595 nm. The bacterial growth was determined by measuring the turbidity (absorbance at 595 nm) of parallel wells.
For the count of viable cells shown in Fig. 2B, part of the culture was serially diluted and spread onto the BHI plate, and the plates were incubated overnight at 37 °C in 5% CO2 under anaerobic condition.

For data set [4], the system named is S. mutans competence development. In words: Transformation assay (competence development). The data set is classed as cell-based. To be noted: 10 μM compound. As to the method:
Four microliters of the overnight culture of S. mutans in BHI medium was inoculated to 0.4 mL of CDM in the absence or presence of 10 µM Compound 1. After 7.5 h incubation at 37 °C in 5% CO2 under anaerobic condition in the AnaeroPack system, 1 μg of plasmid pSET2 was added to the culture. After additional 3-h growth, the cultures were chilled on ice, and serial dilutions of the cultures were plated onto BHI agar plates (for enumeration of total CFU) and onto BHI agar plates containing 1 mg/mL spectinomycin (for enumeration of transformants). Transformation efficiency was determined after 24–48 h incubation at 37 °C in 5% CO2 under anaerobic condition.

Data set [5] concerns nlmA and nlmC gene expression of S. mutans. Kind of data set: Real-time quantitative RT-PCR of bacteriocin genes. The data set is classed as cell-based. To be noted: 25 μM compound. The method, then:
Six microliters of the overnight culture of S. mutans in BHI medium was inoculated into 0.4 mL of CDM. After 17 h of incubation at 37 °C in 5% CO2 under anaerobic condition in an AnaeroPack system, cells were collected by centrifugation and treated with labiase (Cosmo Bio, Tokyo, Japan), and total RNA was extracted and purified by using a PureLink™ RNA Mini kit (Ambion, Austin, TX). Purified RNA was reverse transcribed to cDNA by using SuperScript® VILO™ cDNA Synthesis kit. Quantitative real-time PCR was performed by using a Power SYBR® Green PCR Master Mix (Applied Biosystems, Foster City, CA) on a StepOnePlus Real–Time PCR system (Applied Biosystems). The gene expression levels were calculated by using the ΔΔ threshold cycle (ΔΔC T) method. The 16S rRNA gene of S. mutans was used as the housekeeping reference. The oligonucleotides to amplify each gene were as follows: 5′-[…]-3′ and 5′-[…]-3′ for 16S rRNA, 5′-[…]-3′ and 5′-[…]-3′ for nlmA (SMU. 150), and 5′-[…]-3′ and 5′-[…]-3′ for nlmC (SMU. 1914C). All experiments using commercially available kits were performed according to the manufacturer’s instructions.

Data set [6] concerns the target MuPEP1 (Streptococcus mutans, UniProt Q8DW05). Kind of data set: Kinetic analysis of MuPEP1 peptidase activity. The method, then: (§1) The PEP activity was assayed in a 110-μL reaction mixture containing 50 mM Tris-HCl, 150 mM ammonium sulfate, 0.02% Triton X-100, and various concentrations of the substrate. The reaction was started by adding the PEP solution to a final concentration of 0.25–2.0 μM. The reaction was performed at 25 °C, 50 μL of the reaction mixture was transferred to a white 96-well microtiter plate (Thermo Scientific 236105), and the fluorescence intensity was immediately measured by using a Promega GloMax®-Multi plus Detection System (Promega, Madison, WI) with excitation at 405 nm and emission at 495–505 nm.
(§2) Supplementary Figure S1: v/[E] versus substrate concentration plots for the PEP […]
(§3) The data were fitted with a saturation curve with the
(§4) Tris-HCl, 150 mM ammonium sulfate, and Triton X-100, pH 7.0, at 25 °C. The concentrations of Triton X-100 were 0.01% for MuPEP1 and 0.02% for S. pneumoniae PEP. The concentrations of PEP or the peptidase domain of BlpA were […]
(1 picture or pasted object on this page, not shown here)

Data set [7] deals with T1, S. pneumoniae PEP (Streptococcus pneumoniae serotype 4, UniProt Q03727).
T1 construct: His-tag; made in house; host or cells: E. coli BL21 (DE3) pLysS
Kind of data set: S. pneumoniae PEP peptidase assay with tCComC-AFC. Type of data set: biochemical. As to the method:
as §1, with “nm. […]” for “nm.”
as §4
(§5) domain of S. pneumoniae BlpA with Compound 1. […]
(§6) was digested with 0.5 μM PEP or the peptidase domain of BlpA in the presence of […]

Data set [8] addresses S. oralis PEP (Streptococcus oralis, UniProt A0A1X1IJV1). In words: S. oralis PEP peptidase assay with tCComC-AFC. As to the method: as §1
Supplementary Figure S1: v/[E] versus substrate concentration plots for the PEP
as §3
Tris-HCl, 150 mM ammonium sulfate, and Triton X-100, pH 7.0, at 25 °C. The
concentrations of Triton X-100 were 0.01% for MuPEP1 and 0.02% for S.
pneumoniae PEP. […]

The target in data set [9] is peptidase domain of S. pneumoniae BlpA (Streptococcus pneumoniae, UniProt G3ECC8). In words: BlpA peptidase domain assay with tCComC-AFC. As to the method: as §1, §2, §3, §4
(1 picture or pasted object on this page, not shown here) […]
as §5, §6

Data set [10] deals with CC(C)C[C@H](NC(=O)[C@H](CCC(=O)O)NC(=O)[C@H](CCCCN)NC(=O)[C@H](CCC(=O)O)NC(=O)[C@H](CC(N)=O)NC(=O)[C@H](CC(C)C)NC(=O)[C@@H](NC(=O)[C@@H]1CCCN1C(=O)[C@H](Cc1ccccc1)NC(=O)[C@H](CCC(N)=O)NC(=O)[C@H](C)N)C(C)C)C(=O)N[C@@H](CCCCN)C(=O)N[C@@H](CCC(=O)O)C(=O)N[C@H](C(=O)N[C@@H](CC(C)C)C(=O)NCC(=O)NCC(=O)Nc1ccc2c(C(F)(F)F)cc(=O)oc2c1)C(C)C. Kind of data set: purified protein, by the assay type.

[11] abbreviates: other: MuPEP1, non-competitive inhibition model fit, Fig. 2E, pH 7.0, 25.0 °C.
[12] abbreviates: other: saturation curve, pH 7.0, 25 °C, Fig. S1.

Chain of MuPEP1 (Q8DW05 entry or part of it): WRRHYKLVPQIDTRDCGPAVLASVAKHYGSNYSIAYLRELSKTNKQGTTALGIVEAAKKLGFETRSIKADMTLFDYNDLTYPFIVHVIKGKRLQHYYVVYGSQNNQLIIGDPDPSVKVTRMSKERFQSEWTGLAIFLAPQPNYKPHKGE
Chain of MuPEP1 (S. mutans PEP) (Q8DW05 entry or part of it): as above
Chain of S. oralis PEP (A0A1X1IJV1 entry or part of it): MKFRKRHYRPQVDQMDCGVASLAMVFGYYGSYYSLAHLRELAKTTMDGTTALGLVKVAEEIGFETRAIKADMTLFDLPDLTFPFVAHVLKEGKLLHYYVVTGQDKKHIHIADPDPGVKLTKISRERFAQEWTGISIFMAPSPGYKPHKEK
T1 sequence (Q03727 11-138): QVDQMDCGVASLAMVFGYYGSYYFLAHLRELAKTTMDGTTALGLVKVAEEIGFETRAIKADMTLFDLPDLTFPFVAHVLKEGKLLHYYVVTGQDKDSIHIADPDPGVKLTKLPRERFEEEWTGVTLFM
Chain of peptidase domain of S. pneumoniae BlpA (G3ECC8 entry or part of it): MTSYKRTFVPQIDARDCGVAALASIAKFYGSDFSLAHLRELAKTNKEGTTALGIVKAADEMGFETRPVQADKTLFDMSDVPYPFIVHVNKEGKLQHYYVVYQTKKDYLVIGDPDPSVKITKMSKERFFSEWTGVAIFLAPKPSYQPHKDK

Usually IC50 stands for the concentration at which inhibition is half-maximal. Higher therefore signals a need for much substance. As a reminder, the EC50 is the concentration giving half of the maximal effect. A word on the Ki: it is a measure of affinity in units of concentration, obtained from inhibition or displacement. Lower therefore signals higher affinity. Turning to `CCCNC(=O)OCC1CC2CCN1CC2C#Cc1ccccc1` (centres unmarked) [Compound 1], the IC50 amounted to 38 µM in [1], 29 µM in data set [7], 25 µM in data set [8] and 16 µM in [9]. Further, in data set [2] (25 μM compound, overnight standing culture), the “Biofilm in standing culture in tilted round-bottom culture tubes” value was “easily detached and dispersed after gentle swirling”. Further, the EC50 in data set [2] (Streptococcus mutans, S. mutans, crystal violet staining, 96-well plate, 18 h, read-out: EC50 of suppression of biofilm formation) came out at 5 µM. In addition, the “Antimicrobial activity against S. mutans” value in data set [3] was “did not show antimicrobial activity”. In [4], the “Transformation efficiency relative to absence of compound” value came to 35%. In data set [5], the “Relative gene expression level of nlmA” value is given as 18%. The “Relative gene expression level of nlmC” value in [5] came out at 23%. Further, affinity in [6] was put at a Ki of 38 µM. Moreover, the Inhibition mechanism result in [6] (Vmax decreased, Km unaffected) is on record as “non-competitively inhibited”.

As usually defined, the Km is the substrate concentration at which the rate is half of its maximum. As usually defined, the kcat is the maximal rate divided by the concentration of active sites. For the molecule MuPEP1 (Streptococcus mutans UA159), the Km in data set [10] (setting [11]) worked out at 43 µM; in [10] (setting [12]), 46 µM. The kcat in data set [10] (setting [11]) stood at 0.00333 s⁻¹; in data set [10] (setting [12]) it was 0.00317 s⁻¹.

Turning to “S. oralis PEP (Streptococcus oralis subsp. oralis)”, in data set [10] (setting [12]), the Km came to 8.2 µM and the kcat was 0.00123 s⁻¹.

For “peptidase domain of S. pneumoniae BlpA (Streptococcus pneumoniae)”, in data set [10] (setting [12]), the Km is 18 µM and the kcat was 0.011 s⁻¹.
